Reference: US8999942B2, “Polyol modified aminoglycoside-lipid conjugates” (University of Manitoba, priority 2010, dated 2015)

Assays:
[1] = tested on: S. aureus ATCC 29213; test: MIC, broth macrodilution (CLSI), S. aureus ATCC 29213; assay type: cell-based, Staphylococcus aureus
Protocol: (§1) All compounds were tested against American Type Culture Collection (ATCC) reference strains as well as clinical isolates from the Canadian Intensive Care Unit (CAN-ICU) study (Zhanel, et al., 2008). […] Antibacterial activity against Gram-positive and Gram-negative microorganisms was performed via broth macrodilution tests using CLSI methodology (Clinical and Laboratory Standards Institute, 2006). The minimum inhibitory concentration (MIC) in μg/mL of the aminoglycoside-derived amphiphilic polycarbamates and polyethers were determined using established methods (Clinical and Laboratory Standards Institute, 2006) and are shown in Tables 1 and 2, respectively.

[2] = tested on: methicillin-resistant Staphylococcus aureus (MRSA) ATCC 33592; test: MIC, broth macrodilution (CLSI), MRSA ATCC 33592; assay type: cell-based; details: MRSA, methicillin-resistant S. aureus ATCC 33592
Protocol: as §1

[3] = tested on: S. epidermidis ATCC 14990; test: MIC, broth macrodilution (CLSI), S. epidermidis; assay type: cell-based, Staphylococcus epidermidis; details: footnote ATCC 1490
Protocol: as §1

[4] = tested on: methicillin-resistant Staphylococcus epidermidis (MRSE) CAN-ICU 61589; test: MIC, broth macrodilution (CLSI), MRSE; assay type: cell-based; details: methicillin-resistant S. epidermidis, footnote (ATCC 14990)
Protocol: as §1

[5] = tested on: Streptococcus pneumoniae ATCC 49619; test: MIC, broth macrodilution (CLSI), S. pneumoniae ATCC 49619; assay type: cell-based
Protocol: as §1

[6] = tested on: E. coli ATCC 25922; test: MIC, broth macrodilution (CLSI), E. coli ATCC 25922; assay type: cell-based
Protocol: as §1

[7] = tested on: E. coli (Gentamicin-resistant) CAN-ICU 61714; test: MIC, broth macrodilution (CLSI), gentamicin-resistant E. coli; assay type: cell-based; details: footnote ATCC 6174 (gentamicin resistant)
Protocol: as §1

[8] = tested on: E. coli (Amikacin MIC 32) CAN-ICU 63074; test: MIC, broth macrodilution (CLSI), E. coli CAN-ICU 63074; assay type: cell-based
Protocol: as §1

[9] = tested on: Pseudomonas aeruginosa ATCC 27853; test: MIC, broth macrodilution (CLSI), P. aeruginosa ATCC 27853; assay type: cell-based
Protocol: as §1

[10] = tested on: P. aeruginosa (Gent-R) CAN-ICU 62308; test: MIC, broth macrodilution (CLSI), P. aeruginosa CAN-ICU 62308; assay type: cell-based, Pseudomonas aeruginosa
Protocol: as §1

[11] = tested on: Stenotrophomonas maltophilia (CAN-ICU 62585); test: MIC, broth macrodilution (CLSI), S. maltophilia; assay type: cell-based; details: S. maltophilia, footnote CAN-ICU 62584
Protocol: as §1

[12] = tested on: Acinetobacter baumanni (CAN-ICU 63169); test: MIC, broth macrodilution (CLSI), A. baumannii; assay type: cell-based; details: A. baumannii CAN-ICU 63169
Protocol: as §1

[13] = tested on: S. pneumoniae ATCC 13883; test: MIC, broth macrodilution (CLSI), S. pneumoniae ATCC 13883; assay type: cell-based
Protocol: as §1

[14] = tested on: Gram-positive and Gram-negative strains tested; test: Antibacterial activity, strains tested; assay type: cell-based
Protocol: as §1

Row | Molecule | Minimal Inhibitory Concentration (MIC) [1] [µg/mL] | Minimal Inhibitory Concentration (MIC) [2] [µg/mL] | Minimal Inhibitory Concentration (MIC) [3] [µg/mL] | Minimal Inhibitory Concentration (MIC) [4] [µg/mL] | Minimal Inhibitory Concentration (MIC) [5] [µg/mL] | Minimal Inhibitory Concentration (MIC) [6] [µg/mL] | Minimal Inhibitory Concentration (MIC) [7] [µg/mL] | Minimal Inhibitory Concentration (MIC) [8] [µg/mL] | Minimal Inhibitory Concentration (MIC) [9] [µg/mL] | Minimal Inhibitory Concentration (MIC) [10] [µg/mL] | Minimal Inhibitory Concentration (MIC) [11] [µg/mL] | Minimal Inhibitory Concentration (MIC) [12] [µg/mL] | Minimal Inhibitory Concentration (MIC) [13] [µg/mL] | antibacterial activity (in words) [14]
1 | COCC1OC(OC2C(OC)C(N)CC(N)C2OC2OC(CN)C(OC)C(OC)C2N)C(OC)C1OC1OC(CN)C(OC)C(OC)C1N.O=C(O)C(F)(F)F.O=C(O)C(F)(F)F.O=C(O)C(F)(F)F.O=C(O)C(F)(F)F.O=C(O)C(F)(F)F.O=C(O)C(F)(F)F (stereo not drawn) [Compound 14] | >256 | >256 | 256 | >256 | >256 | >256 | >256 | >256 | >256 | >256 | >256 | >256 | >256 | inactivity
2 | NCC1OC(OC2C(N)CC(N)C(OC3OC(COCc4ccccc4)C(OCc4ccccc4)C(N)C3OCc3ccccc3)C2OCc2ccccc2)C(OCc2ccccc2)C(OCc2ccccc2)C1OCc1ccccc1.O=C(O)C(F)(F)F.O=C(O)C(F)(F)F.O=C(O)C(F)(F)F.O=C(O)C(F)(F)F (stereo not drawn) [Compound 15] | 8 | 8 | 4 | 8 | 32 | 32 | 32 | 16 | >64 | >64 | >64 | >64 | >64 | 
3 | NCC1OC(OC2C(N)CC(N)C(OC3OC(COCc4ccc(Cl)cc4)C(OCc4ccc(Cl)cc4)C(N)C3OCc3ccc(Cl)cc3)C2OCc2ccc(Cl)cc2)C(OCc2ccc(Cl)cc2)C(OCc2ccc(Cl)cc2)C1OCc1ccc(Cl)cc1.O=C(O)C(F)(F)F.O=C(O)C(F)(F)F.O=C(O)C(F)(F)F.O=C(O)C(F)(F)F (stereo not drawn) [Compound 16] | 32 | 32 | 32 | 16 | 64 | 128 | 128 | 64 | >128 | >128 | >128 | >128 | >128 | 
4 | COCC1OC(OC2C(N)CC(N)C(OC3OC(CN)C(OC)C(OC)C3OC)C2OC)C(OC)C(N)C1OC.O=C(O)C(F)(F)F.O=C(O)C(F)(F)F.O=C(O)C(F)(F)F.O=C(O)C(F)(F)F (stereo not drawn) [Compound 17] | >256 | >256 | 256 | >256 | >256 | >256 | >256 | >256 | >256 | >256 | >256 | >256 | >256 | inactivity
5 | NCCC(OCc1ccccc1)C(=O)NC1CC(N)C(OC2OC(CN)C(OCc3ccccc3)C(OCc3ccccc3)C2OCc2ccccc2)C(OCc2ccccc2)C1OC1OC(COCc2ccccc2)C(OCc2ccccc2)C(N)C1OCc1ccccc1.O=C(O)C(F)(F)F.O=C(O)C(F)(F)F.O=C(O)C(F)(F)F.O=C(O)C(F)(F)F (stereo not drawn) [Compound 18] | 4 | 4 | 1 | 1 | 32 | 16 | 16 | 16 | 128 | 64 | 32 | 32 | 16 | 
6 | NCCC(OCc1ccc(Cl)cc1)C(=O)NC1CC(N)C(OC2OC(CN)C(OCc3ccc(Cl)cc3)C(OCc3ccc(Cl)cc3)C2OCc2ccc(Cl)cc2)C(OCc2ccc(Cl)cc2)C1OC1OC(COCc2ccc(Cl)cc2)C(OCc2ccc(Cl)cc2)C(N)C1OCc1ccc(Cl)cc1.O=C(O)C(F)(F)F.O=C(O)C(F)(F)F.O=C(O)C(F)(F)F.O=C(O)C(F)(F)F (stereo not drawn) [Compound 19] | 128 | 128 | 128 | 64 | 128 | >256 | >256 | 256 | >256 | >256 | >256 | >256 | >256 | 
7 | COCC1OC(OC2C(NC(=O)C(CCN)OC)CC(N)C(OC3OC(CN)C(OC)C(OC)C3OC)C2OC)C(OC)C(N)C1OC.O=C(O)C(F)(F)F.O=C(O)C(F)(F)F.O=C(O)C(F)(F)F.O=C(O)C(F)(F)F (stereo not drawn) [Compound 20] | >256 | >256 | >256 | >256 | >256 | >256 | >256 | >256 | >256 | >256 | >256 | >256 | >256 | inactivity
8 | NC[C@H]1O[C@H](O[C@H]2[C@H](O)[C@@H](O[C@H]3O[C@H](CO)[C@@H](O)[C@H](N)[C@H]3O)[C@H](N)C[C@@H]2N)[C@H](O)[C@@H](O)[C@@H]1O [Kanamycin A, reference compound] | 4 | >512 | 2 | 128 | 8 | 8 | 16 | 32 | >512 | >512 | >512 | 32 | 1 | 
9 | Gentamicin [reference compound] | 1 | 2 | 0.25 | 32 | 4 | 1 | 128 | 8 | 8 | 128 | >512 | 128 | 0.25 | 
